Test results published in patent US9428507B2, “Compounds for the treatment of malaria” (The Broad Institute, Inc., priority 2013, dated 2016).

What follows are molecules tested on Dd2 strain of P. falciparum (assay: Activity against the Dd2 strain of P. falciparum (SYBR Green I, 72-h incubation)). Settings: Plasmodium falciparum, DD2, 72 h, read-out: EC^50 Dd2.
Assay type: cell-based
Procedure, shortened: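 SYBR Green I signal (ex 485, em 530 nm) measured growth, read after 24 h dark staining in saponin/Triton lysis buffer. Before that, compound-exposed Dd2 cultures (1% parasitemia, 1.0% hematocrit, 0.125% DMSO) grew 72 h at 37° C in low-oxygen gas. Background control: 20 μM mefloquine.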

| SMILES | EC50 [nM] |
| --- | --- |
| COc1ccc2c3c([nH]c2c1)[C@H](CO)N(C(C)=O)CC31CCNCC1 [Compound 4, (R)-1-(1′-(hydroxymethyl)-7′-methoxyspiro [piperidine-4,4′-pyrido[3,4-b]indol]-2′(1′H,3′H,9′H)-yl)ethanone] | 10700 |
| COc1cc2[nH]c3c(c2cc1OC)C1(CCN(C(=O)Nc2ccccc2F)CC1)CN(C(C)=O)[C@H]3CO [Compound 139, (R)-2′-acetyl-N-(2-fluorophenyl)-1′-(hydroxymethyl)-6′,7′-d imethoxy-1′,2′,3′,9′-tetrahydrospiro [piperidine-4,4′-pyrido[3,4-b]indole]-1-carboxamide] | 5760 |
| COc1ccc2c3c([nH]c2c1)[C@@H](CO)N(Cc1ccccc1)CC31CCN(Cc2cncnc2)CC1 [Compound 94, (S)-(2′-benzyl-7′-methoxy-1-(pyrimidin-5-ylmethyl)-1′,2′,3′,9′-tetrahydrospiro [piperidine-4,4′-pyrido[3,4-b]indol]-1′-yl) methanol] | 929 |
| CC(=O)N1CC2(CCN(C(=O)Nc3ccccc3F)CC2)c2c([nH]c3cc(OC(C)C)ccc23)[C@@H]1CO [Compound 141, (R)-2′-acetyl-N-(2-fluorophenyl)-1′-(hydroxymethyl)-7′-isopropoxy-1′,2′,3′,9′-tetrahydrospiro [piperidine-4,4′-pyrido[3,4-b]indole]-1-carboxamide] | 6710 |
| CCN1CC2(CCN(C(=O)OC(C)(C)C)CC2)c2c([nH]c3cc(OC)ccc23)[C@@H]1CO[Si](C)(C)C(C)(C)C [Compound 56, (R)-tert-butyl 1′-(((tert-butyldimethylsilyl)oxy)methyl)-2′-ethyl-7′-methoxy-1′,2′,3′,9′-tetrahydrospiro [piperidine-4,4′-pyrido[3,4-b]indole]-1-carboxylate] | 1040 to 8770 |
| COc1ccc2c3c([nH]c2c1)[C@H](CO)N(Cc1ccccc1)CC31CCN(C(=O)Nc2ccccc2F)CC1 [Compound 143, (R)-2′-benzyl-N-(2-fluorophenyl)-1′-(hydroxymethyl)-7′-methoxy-1′,2′,3′,9′-tetrahydrospiro [piperidine-4,4′-pyrido[3,4-b]indole]-1-carboxamide] | 5000 |
| CCS(=O)(=O)N1CC2(CCN(C(=O)OC(C)(C)C)CC2)c2c([nH]c3cc(OC)ccc23)[C@@H]1CO [Compound 148, (R)-tert-butyl 2′-(ethylsulfonyl)-1′-(hydroxymethyl)-7′-methoxy-1′,2′,3′,9′-tetrahydrospiro [piperidine-4,4′-pyrido[3,4-b]indole]-1-carboxylate] | 8530 |
| COc1ccc2c3c(n(C)c2c1)[C@H](CO)N(CC1CCCCC1)CC31CCN(Cc2nccs2)CC1 [Compound 85, (R)-(2′-(cyclohexylmethyl)-7′-methoxy-9′-methyl-1-(thiazol-2-ylmethyl)-1′,2′,3′,9′-tetrahydrospiro [piperidine-4,4′-pyrido[3,4-b]indol]-1′-yl)methanol] | 1620 |
| C=CCOC(=O)N1CC2(CCN(C(=O)OC(C)(C)C)CC2)c2c([nH]c3cc(OC)ccc23)[C@@H]1CO[Si](C)(C)C(C)(C)C [Compound 18, (R)-2′-allyl 1-tert-butyl 1′-(((tert-butyldimethylsilyl)oxy)methyl)-7′-methoxy-3′,9′-dihydrospiro[piperidine-4,4′-pyrido[3,4-b]indole]-1,2′(1′H)-dicarboxylate] | 763 |
| COc1ccc2c3c([nH]c2c1)[C@H](CO)N(Cc1cccc(F)c1)CC31CCN(Cc2ccccn2)CC1 [Compound 78, (R)-(2′-(3-fluorobenzyl)-7′-methoxy-1-(pyridin-2-ylmethyl)-1′,2′,3′,9′-tetrahydrospiro [piperidine-4,4′-pyrido[3,4-b]indol]-1′-yl)methanol] | 905 |
| COc1ccc2c3c([nH]c2c1)[C@H](CO)N(Cc1ccncc1)CC31CN(Cc2ccc(-c3ccccn3)cc2)C1 [Compound 134, (R)-(7′-methoxy-1-(4-(pyridin-2-yl)benzyl)-2′-(pyridin-4-ylmethyl)-1′,2′,3′,9′-tetrahydrospiro [azetidine-3,4′-pyrido[3,4-b]indol]-1′-yl)methanol] | 2970 |

Further lines, results first:

| EC50 [nM] | SMILES |
| --- | --- |
| 269 | COc1ccc2c3c([nH]c2c1)[C@H](CO)N(C(=O)Cc1ccccc1)CC31CCN(C(=O)Nc2ccccc2F)CC1 [Compound 105, (R)-N-(2-fluorophenyl)-1′-(hydroxymethyl)-7′-methoxy-2′-(2-phenylacetyl)-1′,2′,3′,9′-tetrahydrospiro [piperidine-4,4′-pyrido[3,4-b]indole]-1-carboxamide] |
| 391 | COc1ccc2c3c([nH]c2c1)[C@H](CO)N(S(=O)(=O)c1ccccc1)CC31CCN(C(=O)Nc2ccccc2F)CC1 [Compound 147, (R)-N-(2-fluorophenyl)-1′-(hydroxymethyl)-7′-methoxy-2′-(phenylsulfonyl)-1′,2′,3′,9′-tetrahydrospiro [piperidine-4,4′-pyrido+[,4-b]indole]-1-carboxamide] |
| 892 | COc1ccc2c3c(n(C)c2c1)[C@H](CO)N(C(=O)Nc1ccc(F)cc1)CC31CCN(C(=O)c2ccc3c(c2)OCO3)CC1 [Compound 131, (R)-1-(benzo[d] [1,3]dioxole-5-carbonyl)-N-(4-fluorophenyl)-1′-(hydroxymethyl)-7′-methoxy-9′-methyl-3′,9′-dihydrospiro [piperidine-4,4′-pyrido[3,4-b]indole]-2′(1′H)-carboxamide] |
| 918 to 2270 | COc1ccc2c3c([nH]c2c1)[C@H](CO)N(C(C)=O)CC31CCN(C(=O)Nc2ccccn2)CC1 [Compound 68, (R)-2′-acety1-1′-(hydroxymethyl)-7′-methoxy-N-(pyridin-2-yl)-1′,2′,3′,9′-tetrahydrospiro[piperidine-4,4′-pyrido[3,4-b]indole]-1-carboxamide] |
| 1750 to 1900 | COc1ccc2c3c([nH]c2c1)[C@H](CO)N(CCc1ccccc1)CC31CCN(C(=O)Nc2ccccc2F)CC1 [Compound 42, (R)-N-(2-fluorophenyl)-1′-(hydroxymethyl)-7′-methoxy-2′-phenethyl-1′,2′,3′,9′-tetrahydrospiro[piperidine-4,4′-pyrido[3,4-b]indole]-1-carboxamide] |
| 752 | COc1ccc2c3c([nH]c2c1)[C@H](CO)N(C(C)=O)CC31CCN(C(=O)Cc2ccccc2F)CC1 [Compound 39] |
| 882 | COc1ccc2c3c([nH]c2c1)[C@H](CN1CCOCC1)N(C(C)=O)CC31CCN(C(=O)Nc2ccccc2F)CC1 [Compound 65, (S)-2′-acetyl-N-(2-fluorophenyl)-7′-methoxy-1′-(morpholinomethyl)-1′,2′,3′,9′-tetrahydrospiro[piperidine-4,4′-pyrido[3,4-b]indole]-1-carboxamide] |
| 44 to 131 | COc1ccc2c3c([nH]c2c1)[C@H](CO)N(C(C)=O)CC31CCN(C(=O)Nc2cccc(F)c2F)CC1 [Compound 45, (R)-2′-acetyl-N-(2,3-difluorophenyl)-1′-(hydroxymethyl)-7′-methoxy-1′,2′,3′,9′-tetrahydrospiro[piperidine-4,4′-pyrido[3,4-b]indole]-1-carboxamide] |
| 177 to 235 | COc1ccc2c3c([nH]c2c1)[C@H](CO)N(C(C)=O)CC31CCN(C(=O)Nc2c(F)cccc2F)CC1 [Compound 51, (R)-2′-acetyl-N-(2,6-difluorophenyl)-1′-(hydroxymethyl)-7′-methoxy-1′,2′,3′,9′-tetrahydrospiro[piperidine-4,4′-pyrido[3,4-b]indole]-1-carboxamide] |
| 1240 to 2250 | COc1ccc2c3c([nH]c2c1)[C@H](CO)N(C(=O)c1ccccc1)CC31CCN(C(=O)Nc2ccccc2F)CC1 [Compound 50, (R)-2′-benzoyl-N-(2-fluorophenyl)-1′-(hydroxymethyl)-7′-methoxy-1′,2′,3′,9′-tetrahydrospiro[piperidine-4,4′-pyrido[3,4-b]indole]-1-carboxamide] |
| 113 | COc1ccc2c3c([nH]c2c1)[C@H](CO)N(S(=O)(=O)C1CC1)CC31CCN(C(=O)Nc2ccccc2F)CC1 [Compound 145, (R)-2′-(cyclopropylsulfonyl)-N-(2-fluorophenyl)-1′-(hydroxymethyl)-7′-methoxy-1′,2′,3′,9′-tetrahydrospiro [piperidine-4,4′-pyrido[3,4-b]indole]-1-carboxamide] |
| 30 to 130 | COc1ccc2c3c([nH]c2c1)[C@H](CC(F)(F)F)N(C(C)=O)CC31CCN(C(=O)Nc2ccccc2F)CC1 [Compound 74, (S)-2′-acetyl-N-(2-fluorophenyl)-7′-methoxy-1′-(2,2,2-trifluoroethyl)-1′,2′,3′,9′-tetrahydrospiro[piperidine-4,4′-pyrido[3,4-b]indole]-1-carboxamide] |
| 1610 | COc1ccc2c3c([nH]c2c1)[C@H](CO)N(C(=O)C(F)(F)F)CC31CCN(C(=O)Nc2ccccc2F)CC1 [Compound 3, (R)-N-(2-fluorophenyl)-1′-(hydroxymethyl)-7′-methoxy-2′-(2,2,2-trifluoroacetyl)-1′,2′,3′,9′-tetrahydrospiro[piperidine-4,4′-pyrido[3,4-b]indole]-1-carboxamide] |
| 2470 | COc1ccc2c3c([nH]c2c1)[C@H]1COCC(=O)N1CC31CCN(C(=O)Nc2ccccc2F)CC1 [Compound 140, (S)-N-(2-fluorophenyl)-10-methoxy-4-oxo-1,3,4,6,12,12b-hexahydrospiro [[1,4]oxazino[4′,3′:1 ,2]pyrido[3,4-b]indole-7,4′-piperidine]-1′-carboxamide] |
| 183 to 319 | CNC[C@H]1c2[nH]c3cc(OC)ccc3c2C2(CCN(C(=O)Nc3ccccc3F)CC2)CN1C(C)=O [Compound 6, (S)-2′-acetyl-N-(2-fluorophenyl)-7′-methoxy-1′-((methylamino)methyl)-1′,2′,3′,9′-tetrahydrospiro[piperidine-4,4′-pyrido[3,4-b]indole]-1-carboxamide] |

Same assay, conditions: read-out: EC^50 Dd2

| SMILES | EC50 [nM] |
| --- | --- |
| COc1ccc2c3c([nH]c2c1)[C@H](CO[Si](C)(C)C(C)(C)C)N(C(C)=O)CC31CCN(C(=O)OC(C)(C)C)CC1 [Compound 29, (R)-tert-butyl 2′-acetyl-1′-(((tert-butyldimethylsilyl)oxy)methyl)-7′-methoxy-1′,2′,3′,9′-tetrahydrospiro[piperidine-4,4′-pyrido[3,4-b]indole]-1-carboxylate] | 1390 |
